Ki data for 27 compounds are collected here from US20050209278A1, “Piperidinyl- and piperazinyl-sulfonylmethyl hydroxamic acids and their use as protease inhibitors” (priority 2002, published 2005).

Where two headings read alike, the source gives them in different places.

For one experiment, the target named is T1, MMP-2 (Homo sapiens, UniProt P08253).
T1 construct: made in house; host or cells: MMP-2-transfected p2AHT2 cells
T1 sequence (P08253 110-660): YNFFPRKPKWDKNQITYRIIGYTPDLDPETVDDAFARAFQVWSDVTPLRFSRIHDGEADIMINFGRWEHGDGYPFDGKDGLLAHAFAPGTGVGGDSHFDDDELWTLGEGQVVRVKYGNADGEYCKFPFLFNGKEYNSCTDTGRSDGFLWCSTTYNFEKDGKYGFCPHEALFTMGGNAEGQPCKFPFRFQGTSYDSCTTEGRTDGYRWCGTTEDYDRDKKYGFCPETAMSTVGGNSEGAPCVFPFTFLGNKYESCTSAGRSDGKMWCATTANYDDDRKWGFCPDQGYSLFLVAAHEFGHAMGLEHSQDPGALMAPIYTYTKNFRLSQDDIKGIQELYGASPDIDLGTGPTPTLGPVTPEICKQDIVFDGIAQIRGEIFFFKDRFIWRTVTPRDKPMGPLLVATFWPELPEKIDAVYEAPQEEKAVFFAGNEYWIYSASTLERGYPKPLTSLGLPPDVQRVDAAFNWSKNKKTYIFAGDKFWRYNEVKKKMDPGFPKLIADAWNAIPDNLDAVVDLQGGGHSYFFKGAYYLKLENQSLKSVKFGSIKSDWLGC
The experiment can be described thus: In vitro MMP inhibition, Ki determination (fluorogenic substrate II). It counts as biochemical. The settings on record: read-out: MMP-2 Ki.

A further experiment addresses T2, MMP-14 (Homo sapiens, UniProt P50281).
T2 construct: The catalytic domain enzyme was expressed in E. coli inclusion bodies, solubilized in urea; made in house
The experiment is described as above. The following applies: read-out: MMP-14 Ki. It counts as biochemical. In outline: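 E. coli-expressed, refolded MMP-14 catalytic domain, activated with APMA or trypsin, in 100 mM Tris-HCl pH 7.5, 100 mM NaCl, 10 mM CaCl2, 0.05% Brij-type detergent. Apparent Ki by Morrison-equation regression of velocity vs inhibitor and enzyme concentration.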

As a reminder, the Ki is a dissociation constant, usually derived from enzyme kinetics or from competition with a known ligand. Consider `O=C(NO)C1(S(=O)(=O)N2CCN(c3ncc(-c4ccc(Cl)cc4)cn3)CC2)CCOCC1` [Example 66], for which the results for the inhibitory constant (Ki) on MMP-2 (value not in parenthesis) and at MMP-14 (value not in parenthesis) were 2.52 nM and 1120 nM, respectively.

Take `CCCCc1cnc(N2CCN(S(=O)(=O)C3(C(=O)NO)CCOCC3)CC2)nc1` [Example 105]: the Ki was 2.94 nM on MMP-2 (value not in parenthesis) and 1660 nM on MMP-14 (value not in parenthesis).

For the compound `CCCCc1ccc(N2CCN(S(=O)(=O)C3(C(=O)NO)CCOCC3)CC2)nc1` [Example 168], the Ki at MMP-2 (value not in parenthesis) was determined as 0.15 nM; on MMP-14 (value not in parenthesis) it was 534 nM. For `CCc1ccc(-c2ccc(C3CCN(S(=O)(=O)C4(C(=O)NO)CCOCC4)CC3)nc2)cc1` [Example 393], the Ki is 2.23 nM at MMP-2 (value outside parentheses) and 194 nM on MMP-14 (value outside parentheses). Taken in the same sequence, the figures for `CCCCc1ccc(C2CCN(S(=O)(=O)C3(C(=O)NO)CCN(CCOC)CC3)CC2)nc1` [Example 397] were 0.69 nM and 2920 nM. Taken in the same sequence, the figures for `O=C(NO)C1(S(=O)(=O)N2CCC(c3ccc(OCc4ccccc4)cn3)CC2)CCOCC1` [Example 398] were 1.31 nM and 514 nM. For `N#Cc1ccc(-c2cnc(N3CCN(S(=O)(=O)C4(C(=O)NO)CCOCC4)CC3)s2)cc1` [Example 399], in that order: 0.05 nM and 9.69 nM.

Turning to `CCCC#Cc1cnc(N2CCN(S(=O)(=O)C3(C(=O)NO)CCOCC3)CC2)s1` [Example 400], the Ki is 0.71 nM on MMP-2 (value outside parentheses) and 724 nM at MMP-14 (value outside parentheses). As to `CCCCCC/C=C\C1CCN(S(=O)(=O)C2(C(=O)NO)CCOCC2)CC1` [Example 401], the Ki at MMP-2 (value outside parentheses) amounted to 12.8 nM; at MMP-14 (value outside parentheses), 2720 nM. Regarding `CCCCCC/C=C/C1CCN(S(=O)(=O)C2(C(=O)NO)CCOCC2)CC1` [Example 402], the inhibition constant Ki on MMP-2 (value outside parentheses) was 0.83 nM.

For the compound `O=C(NO)C1(S(=O)(=O)N2CCC(COCc3ccc(C(F)(F)F)cc3)CC2)CCOCC1` [Example 403], the figures for the inhibition constant Ki at MMP-2 (value outside parentheses) and on MMP-14 (value outside parentheses) were 4.96 nM and 129 nM, respectively.

On to `O=C(NO)C1(S(=O)(=O)N2CCC(COCc3ccc(OC(F)(F)F)cc3)CC2)CCOCC1` [Example 404], for which the Ki was 1.41 nM on MMP-2 (value outside parentheses) and 71.8 nM at MMP-14 (value outside parentheses).

On to `O=C(NO)C1(S(=O)(=O)N2CCC(COCc3ccc(SC(F)(F)F)cc3)CC2)CCOCC1` [Example 405], for which the inhibition constant Ki on MMP-2 (value outside parentheses) came out at 1.27 nM; on MMP-14 (value outside parentheses), 95.7 nM. Taken in the same sequence, the figures for `CCCCCCCOC1CCN(S(=O)(=O)C2(C(=O)NO)CCOCC2)CC1` [Example 406] were 1.76 nM and 1190 nM.

In the case of `O=C(NO)C1(S(=O)(=O)N2CCC(c3ccc(-c4cccs4)c(F)c3)CC2)CCOCC1` [Example 407], the inhibition constant (Ki) came to 0.361 nM on MMP-2 (value outside parentheses) and 3030 nM at MMP-14 (value outside parentheses). Regarding `O=C(NO)C1(S(=O)(=O)N2CCC(c3ccc(N4CCCC4)cn3)CC2)CCOCC1` [Example 408], the inhibition constant Ki is 6.48 nM at MMP-2 (value outside parentheses) and 1050 nM at MMP-14 (value outside parentheses). Taken in the same sequence, the figures for `O=C(NO)C1(S(=O)(=O)N2CCC(c3ccc(-c4ccccn4)cn3)CC2)CCOCC1` [Example 409] were 24.3 nM and 1770 nM.

As for `CCCCOc1ccc(C2CCN(S(=O)(=O)C3(C(=O)NO)CCOCC3)CC2)nc1` [Example 410], the inhibitory constant (Ki) at MMP-2 (value outside parentheses) worked out at 0.55 nM; at MMP-14 (value outside parentheses), 1360 nM. For `CCC(F)(F)CCc1ccc(C2CCN(S(=O)(=O)C3(C(=O)NO)CCOCC3)CC2)cn1` [Example 411], in that order: 15.3 nM and above 10000 nM. Turning to `Cc1ccc(-c2csc(N3CCN(S(=O)(=O)C4(C(=O)NO)CCOCC4)CC3)n2)cc1` [Example 412], the inhibition constant Ki on MMP-2 (value outside parentheses) and on MMP-14 (value outside parentheses) was above 10000 nM in each case. Turning to `Cc1cccc(-c2csc(N3CCN(S(=O)(=O)C4(C(=O)NO)CCOCC4)CC3)n2)c1` [Example 413], the results for the Ki on MMP-2 (value outside parentheses) and at MMP-14 (value outside parentheses) were 6010 nM and above 10000 nM, respectively.

`O=C(NO)C1(S(=O)(=O)N2CCN(c3nc(-c4ccccc4)cs3)CC2)CCOCC1` [Example 415]: the Ki on MMP-2 (value outside parentheses) was 2880 nM; on MMP-14 (value outside parentheses), above 10000 nM. For `Cc1ccc(-c2ccc(C3CCN(S(=O)(=O)C4(C(=O)NO)CCOCC4)CC3)nc2)s1` [Example 416], in that order: 2.07 nM and 506 nM. Taken in the same sequence, the figures for `O=C(NO)C1(S(=O)(=O)N2CCC(c3ccc(-c4cccc(F)c4)cn3)CC2)CCOCC1` [Example 417] were 4.13 nM and 1300 nM. For `O=C(NO)C1(S(=O)(=O)N2CCC(c3ccc(OCCC(F)(F)F)cn3)CC2)CCOCC1` [Example 418], in that order: 0.97 nM and 5360 nM. With `O=C(NO)C1(S(=O)(=O)N2CCN(c3ccc(-c4nn[nH]n4)cc3)CC2)CCOCC1` [Example 419], the values for the Ki on MMP-2 (value outside parentheses) and on MMP-14 (value outside parentheses) were 27.9 nM and above 10000 nM, respectively. For `CCCCc1ccc(C2(O)CCN(S(=O)(=O)C3(C(=O)NO)CCOCC3)CC2)nc1` [Example 420], in that order: 181 nM and above 10000 nM.
